This passage reports EC50 and CC50 results from US7767704B2, “Antiviral 4-aminocarbonylamino-substituted imidazole compounds” (AiCuris GmbH & Co. KG, priority 2004, dated 2010).

One data set has as its system HCMV. The data set is described as follows: Anti-HCMV (anti-human cytomegalovirus) cytopathogenicity test. The data set is classed as cell-based. To be noted: Human betaherpesvirus 5, 144 h; HCMV-infected NHDF cells, M.O.I. 0.001-0.002, 6 days; inhibition of CPE by 50% vs untreated virus control. The procedure:
(§1) Anti-HCMV (Anti-human Cytomegalovirus) Cytopathogenicity Tests
(§2) The test compounds are employed as 50 millimolar (mM) solutions in dimethyl sulphoxide (DMSO). Ganciclovir, foscarnet and cidofovir are used as reference compounds. After addition of in each case 2 μl of the 50, 5, 0.5 and 0.05 mM DMSO stock solutions to 98 μl portions of cell culture medium in row 2 A-H for duplicate determinations, 1:2 dilutions are carried out with 50 μl portions of medium up to row 11 of the 96-well plate. The wells in rows 1 and 12 each contain 50 μl of medium. 150 μl of a suspension of 1×10^4 cells (human prepuce fibroblasts [NHDF]) are pipetted into each of the wells (row 1=cell control) and, in rows 2-12, a mixture of HCMV-infected and uninfected NHDF cells (M.O.I.=0.001-0.002), i.e. 1-2 infected cells per 1000 uninfected cells. Row 12 (without substance) serves as virus control. The final test concentrations are 250-0.0005 μM. The plates are incubated at 37° C./5% CO2 for 6 days, i.e. until all the cells are infected in the virus controls (100% cytopathogenic effect [CPE]). The wells are then fixed and stained by adding a mixture of formalin and Giemsa's dye (30 minutes), washed with double-distilled water and dried in a drying oven at 50° C. The plates are then assessed visually using an overhead microscope (plaque multiplier from Technomara).
(§3) The following data can be acquired from the test plates: • CC50 (NHDF)=substance concentration in μM at which no visible cytostatic effects on the cells are evident by comparison with the untreated cell control; • EC50 (HCMV)=substance concentration in […] which inhibits the CPE (cytopathic effect) by 50% compared with the untreated virus control; • SI (selectivity index)=CC50 (NHDF)/EC50 (HCMV).

Data set [1] is described as follows: Cytostatic effect on NHDF cells in the anti-HCMV cytopathogenicity test. The data set is classed as cell-based. The settings on record: NHDF cells (human prepuce fibroblasts), 6 days incubation, visual assessment, concentration at which no visible cytostatic effects are evident. The procedure: as §1, §2, §3
A general note: Cytopathic effects are the visible damage that an infection or toxin causes in cultured cells.

As usually defined, the EC50 is the concentration at which the effect is half-maximal. A higher EC50 goes with a need for much substance. A word on the CC50: it is the concentration at which the toxic effect on the cells reaches its halfway point. A high value points to better tolerance by the cells.

In the data set on HCMV, `COc1ccc(C(C)NC(=O)c2nc(NC(=O)Nc3ccc(C)c(F)c3)cn2C)cn1` (stereo not shown) [Example 2, 4-({[(3-Fluoro-4-methylphenyl)amino]carbonyl}amino)-N-[1-(6-methoxypyridin-3-yl)ethyl]-1-methyl-1H-imidazole-2-carboxamide] displayed an EC50 of 0.0005 µM. The same compound yielded a CC50 at 6 days in data set [1] of 94 µM.

For `Cc1cc(Cl)ccc1NC(=O)Nc1cn(CC2CC2)c(C(=O)NCCCN2CCOCC2)n1` [Example 3, 4-({[(4-Chloro-2-methylphenyl)amino]carbonyl}amino)-1-(cyclopropylmethyl)-N-(3-morpholin-4-ylpropyl)-1H-imidazole-2-carboxamide], it took 0.003 µM to reach a half-maximal effect in the data set with HCMV (EC50). This compound also came in with a CC50 at 6 days in data set [1] of 25 µM.

On to `Cc1cc(Cl)ccc1NC(=O)Nc1cn(CC2CC2)c(C(=O)NCCCn2cccn2)n1` [Example 11], for which, in the data set with HCMV, a half-maximal response (EC50) required 0.001 µM. Also, in data set [1], it took 25 µM to reach half-maximal cytotoxicity (CC50 at 6 days).

`COCCOCCCNC(=O)c1nc(NC(=O)Nc2ccc(Cl)cc2C)cn1CC=C(C)C` [Example 25]: the EC50 in the data set on HCMV came to 0.001 µM. The compound also yielded a CC50 at 6 days in data set [1] of 6.25 µM.

In turn, `COc1ccc(CNC(=O)c2nc(NC(=O)Nc3ccc(OC(F)(F)F)cc3)cn2CC2CC2)cc1` [Example 32] registered an EC50 in the data set with HCMV of 0.001 µM. This compound returned a CC50 at 6 days in data set [1] of 3.13 µM.

As to `O=C(Nc1ccc(OC(F)(F)F)cc1)Nc1cn(Cc2ccc(C(F)(F)F)cc2)c(C(=O)NCCO)n1` [Example 124, N-(2-Hydroxyethyl)-4-[({[4-(trifluoromethoxy)phenyl]amino}carbonyl)amino]-1-[4-(trifluoromethyl)benzyl]-1H-imidazole-2-carboxamide], the midpoint of the response with HCMV, the EC50, lay at 0.0014 µM. Moreover, half-maximal cytotoxicity in data set [1] (CC50 at 6 days) was put at 9.4 µM.

Take `O=C(Nc1ccc(OC(F)(F)F)cc1)Nc1cn(Cc2ccc(C(F)(F)F)cc2)c(C(=O)NCCOC(=O)CN2CCOCC2)n1` [Example 139]: the EC50 in the data set on HCMV turned out to be 0.0028 µM. The compound further yielded a CC50 at 6 days in data set [1] of 4.7 µM.

In the data set with HCMV, `Cn1cc(NC(=O)Nc2ccc(OC(F)(F)F)cc2)nc1C(=O)NCCCC(F)(F)F` [Example 152, 1-Methyl-N-(4,4,4-trifluorobutyl)-4-[({[4-(trifluoromethoxy)phenyl]amino}carbonyl)amino]-1H-imidazole-2-carboxamide] registered an EC50 of 0.0019 µM. This compound came in with a CC50 at 6 days in data set [1] of 31 µM.
